These are literature values, as cited in patent US20190328719A1, “METHODS OF TREATING DEVELOPMENTAL DISORDERS AND/OR SEIZURE DISORDERS WITH FLUPIRTINE” (Ovid Therapeutics Inc., priority 2016, published 2019).

The conditions of data set [1]: cited from earlier work.
For data set [2] the following is noted: cited from earlier work; for plasma elimination half-life: healthy young volunteers, single dose.
For data set [3] the following is noted: cited from earlier work; for Cmax (without correction for Cmin): 14 days of administration.
The conditions of data set [4]: cited from earlier work. This is another data set of the same source.
For data set [5] the following is noted: three-month efficacy study, insomnia; cited from earlier work.
For data set [6] the following is noted: patients with a history of drug abuse; cited from earlier work.
The conditions of data set [7]: cited from earlier work. This is another data set of the same source.
[8] abbreviates: dose range 200-400 mg three times daily.

Counter-ions that a name gives are not always drawn. Like-named read-outs stand apart in the source and are kept apart here.

For `CCOC(=O)Nc1ccc(NCc2ccc(F)cc2)nc1N` [flupirtine], the water solubility result in data set [1] is “poorly water soluble”. Besides, the “time to steady-state plasma concentrations” value in data set [2] (75 or 150 mg at 12 hour intervals) is 2 days. Moreover, the plasma elimination half-life result was “about 8.5 hours” in data set [2] (intravenous), ~9.6 h in data set [2] (oral) and ~10.7 h in data set [2] (rectal). In addition, the “half-life following intravenous administration” value in data set [2] (intravenous) is on record as “about 1.8 hours”. For the same molecule, the “relation of plasma concentrations to dose” value in data set [2] (range of 50 to 300 mg) is “linearly related to dose”. In addition, the Bioavailability result in data set [2] (rectal dose, in comparison with intravenous flupirtine tartrate 80 mg) is “about 72.5%”. For the same molecule, the “time until it appears in the plasma” value in data set [2] (single oral dose 100 mg or 200 mg, healthy volunteers) is 15 to 30 min. The “peak plasma concentration (Cmax)” value is “approximately 0.8 mg/L” in data set [2] (single oral dose 100 mg) and ~2000 ng/mL in data set [2] (single oral dose 200 mg).
As to `CC(=O)[C@H]1CC[C@H]2[C@@H]3CC[C@H]4C[C@](C)(O)CC[C@]4(C)[C@H]3CC[C@]12C` [ganaxolone], the Cmin in data set [3] (50 mg group) is 2.34 ng/mL; in data set [3] (200 mg group) it was 23.79 ng/mL; in data set [3] (500 mg group), 56.71 ng/mL. Besides, the “Cmax (without correction for Cmin)” value in data set [3] (50 mg group) is 32 ng/mL; in data set [3] (200 mg group), 106 ng/mL; in data set [3] (500 mg group), 376 ng/mL. In data set [3] (in vivo), the “AUC and Cmax with increasing dose” value was “linear and proportional increase”. The half-life entry in data set [3] (in vivo) is on record as “about 20 hours”. The Cmax in data set [3] (single 900 mg dose) was 293 ± 63.8 ng/mL.
As for `CCOC(=O)Nc1ccc(NCc2ccc(F)cc2)cc1N` [retigabine, N-[2-amino-4-(4-fluorobenzylamino)-phenyl] carbamic acid ethyl ester], in data set [4] (setting [8]), the between-subject variability is reported as 35-50% and the linearity of pharmacokinetics result was “linear”. Further, in data set [4] (in vivo), the “elimination half-lives (t/2)” value was 7 to 11 h and the median plasma half-life was 6 to 8 h. The Absolute oral bioavailability result in data set [4] (relative to an intravenous dose) is given as “approximately 60%”.
Regarding `Oc1noc2c1CCNC2` [gaboxadol, 4,5,6,7-tetrahydroisoxazolo [5,4-c]pyridine-3-ol], the “effects in sleep onset and sleep maintenance” value in data set [5] is “failed to show significant effects in sleep onset and sleep maintenance”. For the same molecule, in data set [6], the psychiatric adverse events result is “steep increase in psychiatric adverse events”.
In the case of `CCOC(=O)Nc1ccc(NCc2ccc(F)cc2)nc1N` [flupirtine maleate], the water solubility result in data set [1] (listed as maleate salt) is listed as “water soluble”. Also, the highest concentration (Cmax) result in data set [2] (rectal, flupirtine maleate 150 mg) is reported as “about 0.89 mg/L”.
Turning to `OC(c1ccccc1)(c1ccccc1)C1CCCCN1` (stereo not drawn) [pipradrol], the “effects of high doses” value in data set [7] is “uncoordinated activity and ataxia, followed by tremors and clonic convulsions”.
